According to patent publication US7988984B2, “Insect repellent and attractant and auto-thermostatic membrane vapor control delivery system” (Energy Related Devices, Inc., priority 2005, dated 2011):

What was measured:
[1] = test system: mosquitoes; experiment: Mosquito behaviour at decoy band with a DEET-filled ampoule; format: in vivo; conditions: only DEET used in ampoule of decoy band
Text: Initially the scents are designed to attract the mosquitoes preferentially to the band 1. When the mosquito is nearing contact the DEET will interfere with the chemical sensors of the mosquito and they will use only infrared and visual cues. If she is close enough, within roughly three meters, she will be attracted to the dark pupil pattern 5 and infrared emissions on the band 1 and at close range land on the border area 3 of red or pink and the white area 4 of the decoy. If not close enough for visual cues she may then wander off with some dose of DEET to hamper her long-range ability to find prey. By landing on the decoy 3,4,5 the Mosquito will obtain a high concentration of DEET vapor disabling and interfering with her chemical sensors.
Chemicals such as citronella may confuse the mosquito's appetite. […] If the user moves or brushes the mosquito away this may be sufficient to put them far enough away from visual cues to attack again, reducing the chances that she will be able to find an authentic victim. The ampoules 7, 8 can be designed with a desired diffusion delivery rate of DEET and scents 10, 28 in sufficient volume to effectively deliver a steady chemical vapor for days.

[2] = applied on the skin; from the literature search; cited from earlier work
[3] = highest dose (most concentrated DEET sold); cited from earlier work
[4] = test system: mosquitoes; experiment: Mosquitoes tracking and locating a human with a fresh coating of DEET on the skin; format: in vivo; conditions: fresh coating of DEET mosquito repellent on skin

Compound: CCN(CC)C(=O)c1cccc(C)c1 [DEET, N,N-diethyl-3-methylbenzamide]
- mosquito behaviour toward the decoy [1]: repeatably attacking the decoy
- fraction of DEET absorbed through the skin [2]: 6-15%
- time DEET remains on the skin [3]: roughly 8 hours
- ability of mosquitoes to track and locate a human [4]: still able to track and locate a human
